Patent US12558405B2, “Pharmaceutical composition using endogenous cells for preventing or treating musculoskeletal disorders” (SEOUL NATIONAL UNIVERSITY R&DB FOUNDATION, priority 2019, dated 2026)

Key:
bone marrow stem cells [1] = experiment: Chemotaxis of stem cells, Boyden chamber assay; type: cell-based; details: 24 hours; control group (antibiotic) = 100.00; composition 10% of medium volume, positive controls 100 ng/mL
Experimental: 1×10^4 bone marrow stem cells were seeded onto an upper insert of a transwell and cultured for 24 hours in LG DMEM containing an antibiotic (HyClone, Thermo Fisher Scientific Inc., Waltham, MA, USA). […] LG DMEM not containing FBS was used as a negative control group, and G-CSF 100 ng/mL, SDF-1α 100 ng/mL and IL-1β 100 ng/mL were compared as positive control groups of chemotaxis. In order to count the cells that migrated from the insert to the bottom, the cells remaining on the insert was removed 24 hours later and only the cells at the bottom were left. After fixing with 4% paraformaldehyde and staining with crystal violet, the cells were observed under a microscope. For quantification of the cells that migrated to the bottom, OD540 was measured after dissolving the crystal violet with acetic acid. All experiments were repeated 3 times.

bone marrow stem cells [2] = experiment: Chemotaxis of stem cells, agarose chemotaxis assay; type: cell-based; details: 72 hours; control group (antibiotic) = 100.00; composition 50% of medium volume, positive controls 100 ng/mL
Experimental: First, after preparing 0.8% agarose gel on a 6-well plate, three holes were perforated in each well with intervals of 5 mm using a 5-mm skin biopsy punch. 1×10^4 bone marrow stem cells were dispensed into LG DMEM containing 10% FBS and an antibiotic at the center. After waiting for 5 hours until the cells were attached, the medium was replaced with LG DMEM containing the antibiotic only. […] In addition, G-CSF 100 ng/mL, SDF-1α 100 ng/mL and IL-1β 100 ng/mL were treated for comparison as positive control groups of chemotaxis. 72 hours later, the cells were fixed with 4% paraformaldehyde, stained with DAPI and observed with a fluorescence microscope. The cells that migrated to the left and right sides were imaged with the fluorescence microscope. The number of cells that migrated 100 μm or longer from the end of each hole was counted. All experiments were repeated 3 times.

IL-1β: positive control of chemotaxis, 100 ng/mL
Number of migrated cells (bone marrow stem cells [1]): 358.85 ± 271.58 | Number of migrated cells (bone marrow stem cells [2]): 314.13 ± 220.72

SDF-1α: positive control of chemotaxis, 100 ng/mL
Number of migrated cells (bone marrow stem cells [1]): 365.28 ± 280.55 | Number of migrated cells (bone marrow stem cells [2]): 466.68 ± 348.04

B1: G-CSF: positive control of chemotaxis, 100 ng/mL (protein, UniProt P09919 31-207, looked up)
Granulocyte …: TPLGPASSLPQSFLLKCLEQVRKIQGDGAALQEKLVSECATYKLCHPEELVLLGHSLGIPWAPLSSCPSQALQLAGCLSQLHSGLFLYQGLLQALEGISPELGPTLDTLQLDVADFATTIWQQMEELGMAPALQPTQGAMPAFASAFQRRAGGVLVASHLQSFLEVSYRVLRHLAQP
Number of migrated cells (bone marrow stem cells [1]): 415.01 ± 338.54 | Number of migrated cells (bone marrow stem cells [2]): 393.76 ± 280.52
